Results as given in the NIST ThermoML archive (doi:10.1021/je060490w).
± gives the expanded uncertainty stated by the source.

Experiments:
[1] = xn = mol fraction of the nth substance listed; conditions: Pendant drop shape
[2] = for surface tension liquid-gas: Pendant drop shape; for mass density: 101.33 kPa, Liquid

COC(C)(C)OC [3,3-dimethyl-2,4-dioxapentane] + Cc1ccc(C)c(C)c1
[1]
Conditions | surface tension liquid-gas [mN/m]
298.15 K, x1 = 0.0523 | 28.69 ± 0.32
298.15 K, x1 = 0.0998 | 28.17 ± 0.32
298.15 K, x1 = 0.1497 | 27.62 ± 0.31
298.15 K, x1 = 0.1996 | 27.12 ± 0.31
298.15 K, x1 = 0.2517 | 26.6 ± 0.3
298.15 K, x1 = 0.3009 | 26.13 ± 0.3
298.15 K, x1 = 0.3494 | 25.68 ± 0.3
298.15 K, x1 = 0.3987 | 25.24 ± 0.29
298.15 K, x1 = 0.4502 | 24.79 ± 0.29
298.15 K, x1 = 0.4994 | 24.37 ± 0.29
298.15 K, x1 = 0.5498 | 23.95 ± 0.28
298.15 K, x1 = 0.5996 | 23.55 ± 0.28
298.15 K, x1 = 0.6508 | 23.17 ± 0.28
298.15 K, x1 = 0.6997 | 22.82 ± 0.27
298.15 K, x1 = 0.7498 | 22.51 ± 0.27
298.15 K, x1 = 0.7992 | 22.24 ± 0.27
298.15 K, x1 = 0.8508 | 22 ± 0.27
298.15 K, x1 = 0.8997 | 21.79 ± 0.26
298.15 K, x1 = 0.9489 | 21.62 ± 0.26
298.15 K, x1 = 1 | 21.46 ± 0.26
308.15 K, x1 = 0.0515 | 27.59 ± 0.31
308.15 K, x1 = 0.0998 | 27.02 ± 0.31
308.15 K, x1 = 0.1499 | 26.47 ± 0.3
308.15 K, x1 = 0.2001 | 25.95 ± 0.3
308.15 K, x1 = 0.2475 | 25.5 ± 0.3
308.15 K, x1 = 0.302 | 24.97 ± 0.29
308.15 K, x1 = 0.3512 | 24.53 ± 0.29
308.15 K, x1 = 0.3995 | 24.12 ± 0.28
308.15 K, x1 = 0.4485 | 23.66 ± 0.28
308.15 K, x1 = 0.4989 | 23.23 ± 0.28
308.15 K, x1 = 0.5542 | 22.77 ± 0.27
308.15 K, x1 = 0.5998 | 22.4 ± 0.27
308.15 K, x1 = 0.6518 | 22.02 ± 0.27
308.15 K, x1 = 0.6987 | 21.69 ± 0.26
308.15 K, x1 = 0.7455 | 21.44 ± 0.26
308.15 K, x1 = 0.7962 | 21.11 ± 0.26
308.15 K, x1 = 0.851 | 20.86 ± 0.26
308.15 K, x1 = 0.8973 | 20.71 ± 0.26
308.15 K, x1 = 0.9456 | 20.55 ± 0.26
308.15 K, x1 = 1 | 20.43 ± 0.25
313.15 K, x1 = 0.0506 | 27.03 ± 0.31
313.15 K, x1 = 0.0996 | 26.42 ± 0.3
313.15 K, x1 = 0.1509 | 25.86 ± 0.3
313.15 K, x1 = 0.1994 | 25.36 ± 0.29
313.15 K, x1 = 0.2511 | 24.87 ± 0.29
313.15 K, x1 = 0.3032 | 24.38 ± 0.29
313.15 K, x1 = 0.3475 | 23.95 ± 0.28
313.15 K, x1 = 0.3981 | 23.52 ± 0.28
313.15 K, x1 = 0.4501 | 23.07 ± 0.27
313.15 K, x1 = 0.5 | 22.66 ± 0.27
313.15 K, x1 = 0.5487 | 22.25 ± 0.27
313.15 K, x1 = 0.5993 | 21.84 ± 0.26
313.15 K, x1 = 0.6504 | 21.45 ± 0.26
313.15 K, x1 = 0.6993 | 21.12 ± 0.26
313.15 K, x1 = 0.7486 | 20.8 ± 0.26
313.15 K, x1 = 0.7987 | 20.51 ± 0.25
313.15 K, x1 = 0.8417 | 20.31 ± 0.25
313.15 K, x1 = 0.8929 | 20.12 ± 0.25
313.15 K, x1 = 0.9487 | 19.97 ± 0.25
313.15 K, x1 = 1 | 19.91 ± 0.25

Cc1cc(C)cc(C)c1 [1,3,5-trimethylbenzene] + COC(C)(C)OC
[1], x2 = 0
Conditions | surface tension liquid-gas [mN/m]
298.15 K | 28.05 ± 0.31
308.15 K | 27.21 ± 0.3
313.15 K | 26.78 ± 0.3

COC(C)(C)OC [3,3-dimethyl-2,4-dioxapentane]
[2]
Conditions | mass density [kg/m3] | surface tension liquid-gas [mN/m]
298.15 K | 845.09 ± 0.67 | 21.46 ± 0.26
308.15 K | 834.41 ± 0.69 | 20.43 ± 0.25
313.15 K | 828.99 ± 0.7 | 19.91 ± 0.25

Cc1cc(C)cc(C)c1 [1,3,5-trimethylbenzene]
[2]
Conditions | mass density [kg/m3] | surface tension liquid-gas [mN/m]
298.15 K | 861.12 ± 0.59 | 28.05 ± 0.31
308.15 K | 852.94 ± 0.61 | 27.21 ± 0.3
313.15 K | 848.82 ± 0.62 | 26.78 ± 0.3

Cc1ccc(C)c(C)c1 [1,2,4-trimethylbenzene] + COC(C)(C)OC
[1], x2 = 0
Conditions | surface tension liquid-gas [mN/m]
298.15 K | 29.3 ± 0.33
308.15 K | 28.24 ± 0.32
313.15 K | 27.71 ± 0.31

CCOC(C)OCC [1,1-diethoxyethane] + Cc1ccc(C)c(C)c1
[1]
Conditions | surface tension liquid-gas [mN/m]
298.15 K, x1 = 0.05 | 28.51 ± 0.32
298.15 K, x1 = 0.1 | 27.76 ± 0.31
298.15 K, x1 = 0.151 | 26.97 ± 0.31
298.15 K, x1 = 0.2005 | 26.29 ± 0.3
298.15 K, x1 = 0.2511 | 25.71 ± 0.3
298.15 K, x1 = 0.3005 | 25.14 ± 0.29
298.15 K, x1 = 0.3526 | 24.6 ± 0.29
298.15 K, x1 = 0.401 | 24.16 ± 0.28
298.15 K, x1 = 0.4538 | 23.73 ± 0.28
298.15 K, x1 = 0.5034 | 23.35 ± 0.28
298.15 K, x1 = 0.5513 | 23.01 ± 0.27
298.15 K, x1 = 0.5998 | 22.7 ± 0.27
298.15 K, x1 = 0.6519 | 22.41 ± 0.27
298.15 K, x1 = 0.7012 | 22.08 ± 0.26
298.15 K, x1 = 0.7499 | 21.85 ± 0.26
298.15 K, x1 = 0.8003 | 21.58 ± 0.26
298.15 K, x1 = 0.8491 | 21.42 ± 0.26
298.15 K, x1 = 0.9 | 21.21 ± 0.26
298.15 K, x1 = 0.9399 | 21.09 ± 0.26
298.15 K, x1 = 1 | 20.88 ± 0.25
308.15 K, x1 = 0.0488 | 27.35 ± 0.31
308.15 K, x1 = 0.0993 | 26.53 ± 0.3
308.15 K, x1 = 0.1486 | 25.79 ± 0.3
308.15 K, x1 = 0.2003 | 25.09 ± 0.29
308.15 K, x1 = 0.2497 | 24.51 ± 0.29
308.15 K, x1 = 0.3001 | 23.95 ± 0.28
308.15 K, x1 = 0.3499 | 23.47 ± 0.28
308.15 K, x1 = 0.4004 | 23.02 ± 0.27
308.15 K, x1 = 0.4534 | 22.6 ± 0.27
308.15 K, x1 = 0.5016 | 22.23 ± 0.27
308.15 K, x1 = 0.55 | 21.9 ± 0.26
308.15 K, x1 = 0.6017 | 21.54 ± 0.26
308.15 K, x1 = 0.6514 | 21.24 ± 0.26
308.15 K, x1 = 0.7003 | 20.96 ± 0.26
308.15 K, x1 = 0.7498 | 20.72 ± 0.25
308.15 K, x1 = 0.8007 | 20.46 ± 0.25
308.15 K, x1 = 0.8502 | 20.28 ± 0.25
308.15 K, x1 = 0.8989 | 20.09 ± 0.25
308.15 K, x1 = 0.9488 | 19.95 ± 0.25
308.15 K, x1 = 1 | 19.89 ± 0.25
313.15 K, x1 = 0.0498 | 26.73 ± 0.3
313.15 K, x1 = 0.0992 | 25.91 ± 0.3
313.15 K, x1 = 0.1501 | 25.09 ± 0.29
313.15 K, x1 = 0.2003 | 24.46 ± 0.29
313.15 K, x1 = 0.2496 | 23.86 ± 0.28
313.15 K, x1 = 0.3027 | 23.34 ± 0.28
313.15 K, x1 = 0.3505 | 22.89 ± 0.27
313.15 K, x1 = 0.4 | 22.43 ± 0.27
313.15 K, x1 = 0.4501 | 22.05 ± 0.26
313.15 K, x1 = 0.499 | 21.67 ± 0.26
313.15 K, x1 = 0.5463 | 21.37 ± 0.26
313.15 K, x1 = 0.6011 | 20.95 ± 0.26
313.15 K, x1 = 0.6503 | 20.68 ± 0.25
313.15 K, x1 = 0.7002 | 20.4 ± 0.25
313.15 K, x1 = 0.7491 | 20.14 ± 0.25
313.15 K, x1 = 0.7998 | 19.91 ± 0.25
313.15 K, x1 = 0.8507 | 19.72 ± 0.25
313.15 K, x1 = 0.899 | 19.53 ± 0.25
313.15 K, x1 = 0.9497 | 19.45 ± 0.24
313.15 K, x1 = 1 | 19.42 ± 0.24
